Results: patent publication US20260284011A1, “COMPOUNDS FOR RESTORING SUSCEPTIBILITY TO BETA-LACTAM ANTIBIOTICS” (UNIVERSITY OF NOTRE DAME DU LAC, priority 2023, published 2026)

How the values were obtained:
[1] = tested on: strain FPR3757 (a USA300 strain); experiment: Checkerboard assay; format: cell-based, Staphylococcus aureus; settings: 24-h incubation
Protocol: Synergy with β-Lactams and Time-Kill Assays. […] In this assay, the antibiotics are compared individually and in combination. The fractional inhibitory concentration (FIC) index is calculated. Synergy is defined as an FIC value ≤0.5, indifference as FIC >0.5 to ≤4, and antagonism as FIC >4.
Checkerboard assay. […] The final inoculum in each well was 5×10^5 CFU·mL^−1, and the result was read after 24-h incubation at 37° C. The fractional inhibitory concentration (FIC) index was calculated for each combination. An FIC index of ≤0.5 is considered synergistic. The experiment was done in triplicates.

NRS21 = experiment: Time-kill assay; format: cell-based, Staphylococcus aureus; settings: for antibacterial activity as single-drug treatment: FIG. 3, 24 h, OXA 32 mg·L^−1, 4 8 mg·L^−1
Protocol: Time-kill assay. MRSA strains (NRS21, NRS70, NRS382, NRS404, HFH 29568, and HFH 30495) were grown overnight on tryptic soy agar plate. Bacteria were diluted in Muller-Hinton broth containing 2% NaCl to […] CFU·mL^−1. […] For MEM and CPT, cation-adjusted Muller-Hinton broth without 2% NaCl was used. Aliquots were taken at 0, 3, 6, 9, 12, and 24 h and were diluted serially for bacterial counts. The assay was done in triplicate.

FPR3757 (USA300 clone) = experiment: Time-kill assay; format: cell-based, Staphylococcus aureus; settings: for antibacterial activity as single-drug treatment: FIG. 3, 24 h, MEM 2 mg·L^−1, 4 8 mg·L^−1
MRSA FPR3757 = experiment: Neutropenic thigh infection model; format: in vivo, mice; settings: MEM 50 mg·kg^−1 ip, 4 20 mg·kg^−1 sc, thighs at 24 h
Protocol: (§1) The neutropenic thigh infection model in mice is commonly used to test efficacy of antibacterial agents. It is a highly standardized and reproducible assay that evaluates attenuation of bacterial load (and not animal survival) as the endpoint. All current clinical antibiotics are evaluated in this model. The direct injection of bacteria into the thighs of mice mimics a human soft-tissue infection. Prior to infection, mice are made neutropenic by injection of cyclophosphamide to cause the temporary depletion of neutrophils, dampening the immune response and making mice more susceptible to infection. […] The potentiation of activity of β-lactam antibiotics by compound 4 observed in vitro, translates to in vivo activity.
(§2) Animals. Outbred 8-week-old female ICR mice for PK and neutropenic thigh infection studies were purchased from Envigo, Indianapolis, IN. The average weight of the mice for the PK study was 30 g (range 26.1 to 33.1 g); mice in the neutropenic thigh infection weights ranged from 24.2 to 37.7 g and were on average 29 g at the initiation of the study. Mice were housed in polycarbonate shoebox cages (for the PK study) or in disposable cages (for the infection studies) with ¼-inch corncob (The Andersons Inc., Maumee, OH) and Alpha-Dri (Shepherd Specialty Papers, Inc., Richland, MI) bedding with a 12-h light/dark cycle at 72° F. The animals were given food (Teklad 2918 irradiated extruded rodent diet) and water ad libitum. The food and water were autoclaved for the infection studies. All procedures were performed in accordance with and approved by the University of Notre Dame Institutional Animal Care and Use Committee.
(§3) Neutropenic thigh infection studies. Mice (n=5 per group, total of 155 mice) were made neutropenic by injection of cyclophosphamide (Sigma-Aldrich, St. Louis, MO) intraperitoneally at 200 mg·kg^−1 (100 μL of a 60 mg·mL^−1 solution) on days −4 and −1. MRSA NRS21 and FPR3757 were grown in Tryptic Soy Agar and diluted to a final concentration of 10^6 CFU·mL^−1 in Brain-heart Infusion. On day 0, 100 μL of bacterial inoculum was injected intramuscularly into each of the right and left thighs. […] MEM was given intraperitoneally at 50 or 100 mg·kg^−1. […] MEM was given intraperitoneally at 50 or 100 mg·kg^−1 at 1 h, 5 h, 9 h, 13 h, 17 h, and 21 h after infection. […] MEM was prepared in 10% DMSO/20% Tween80/70% saline (0.9% NaCl in sterilized water). A vehicle group was included. At 24 h after infection, the mice were euthanized. Both thighs were dissected aseptically, weighed, and homogenized with two volumes of 1×PBS in a Bullet blender (Next Advance, Inc., Averill Park, NY) at 4° C., followed by centrifugation. […] The number of colonies were counted. […]

MRSA NRS21 = experiment: Neutropenic thigh infection model; format: in vivo, mice; settings: single agent (4 20 mg·kg^−1 or OXA 40 mg·kg^−1 sc at 1, 9, 17 h), 24 h
Protocol: as §1, §2, §3

| SMILES | FIC index, 4 with MEM [1] | antibacterial activity as single-drug treatment (NRS21) | log increase in bacterial growth at 24 h (NRS21; compound 4 at 8 mg·L^−1) | antibacterial activity as single-drug treatment (FPR3757 (USA300 clone)) | log reduction compared to vehicle (MRSA FPR3757) | decrease in bacterial counts compared to vehicle-treated mice (MRSA NRS21) | activity of MEM by itself (FPR3757 (USA300 clone); throughout the 24-h assay) | log increase compared to initial bacterial count at 0 h (NRS21; OXA at 32 mg·L^−1 by itself) |
| --- | --- | --- | --- | --- | --- | --- | --- | --- |
| N#Cc1ccc2nc(SCB(O)O)n(Cc3ccc(C(F)(F)F)cc3C(F)(F)F)c2c1 [Compound 4, (((1-(2,4-bis(trifluoro-methyl)benzyl)-6-cyano-1H-benzo[d]imidazol-2-yl)thio)methyl)boronic acid] | 0.13 | did not show antibacterial activity | 4.1 log | did not show antibacterial activity | 0.06 log | did not show a statistically significant decrease in bacterial counts |  |  |
| C[C@@H](O)[C@H]1C(=O)N2C(C(=O)O)=C(S[C@@H]3CN[C@H](C(=O)N(C)C)C3)[C@H](C)[C@H]12 [MEM, meropenem] | 0.13 |  |  | did not show antibacterial activity | 1.2 log |  | no activity |  |
| Cc1onc(-c2ccccc2)c1C(=O)N[C@@H]1C(=O)N2[C@@H]1SC(C)(C)[C@@H]2C(=O)O [OXA, oxacillin] |  | did not show antibacterial activity |  |  |  | did not show a statistically significant decrease in bacterial counts |  | 1.9 log |
